The text below walks through data of PubChem BioAssay (NCI).

Among the test systems are U251 CNS; RPMI-8226 leukemia; MOLT-4 leukemia; M14 melanoma; MALME-3M melanoma; HOP-92 NSCLC; HS 578T breast; MDA-MB-231 breast; K-562 leukemia; SR leukemia.
Holding throughout (assay): NCI anticancer screen, dose series, 48 h

Structures are written as SMILES.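 Where inhibition never reached the appropriate level, the endpoint shown equals the highest concentration tested. Otherwise, values were interpolated linearly from a five-concentration, 48-hour dose response in 96-well plates. GI50 is the concentration that inhibits growth by half. TGI marks complete inhibition of growth.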

For `O=S(=O)(O)c1ccc(-c2nnc(-c3ccccn3)nc2-c2ccc(S(=O)(=O)O)o2)o1`, the TGI in the test on U251 CNS, in the test with RPMI-8226 leukemia, with MOLT-4 leukemia, with M14 melanoma, in the test on MALME-3M melanoma and in the test on HOP-92 NSCLC was greater than 100 µM throughout. Further, the TGI in the test on HS 578T breast, with MDA-MB-231 breast, with K-562 leukemia and with SR leukemia was greater than 100 µM throughout.

As to `COc1cnc2c(c1)C(=O)c1c-2n(CCCN2CCC(O)CC2)c(=O)c2cc(F)ccc12`, the GI50 in the test on U251 CNS was 0.0814 µM; with RPMI-8226 leukemia it was 0.109 µM; in the test with MOLT-4 leukemia it was 0.0445 µM; in the test on M14 melanoma, 0.254 µM; in the test on MALME-3M melanoma, 0.298 µM; with HOP-92 NSCLC, 0.31 µM. The GI50 was 1.67 µM in the test with HS 578T breast, 0.485 µM in the test with MDA-MB-231 breast, 0.216 µM in the test on K-562 leukemia and 0.0806 µM with SR leukemia. Further, the TGI in the test on U251 CNS is 0.453 µM; in the test with RPMI-8226 leukemia it was 0.63 µM; in the test with MOLT-4 leukemia, 0.337 µM; in the test on M14 melanoma, 1.63 µM; in the test with MALME-3M melanoma, 1.2 µM; in the test with HOP-92 NSCLC, 3.22 µM. The TGI turned out to be 52.4 µM in the test on HS 578T breast, 2.1 µM with MDA-MB-231 breast, 2.31 µM in the test on K-562 leukemia and 1.19 µM in the test on SR leukemia.

Take `O=C(CF)N(O)c1ccc(/C=C/c2ccccc2)cc1`: the GI50 is 1.82 µM in the test on U251 CNS; 21.3 µM in the test on RPMI-8226 leukemia; 2.72 µM with MOLT-4 leukemia; 3.82 µM in the test with M14 melanoma; 24.6 µM in the test with MALME-3M melanoma; 3.97 µM in the test with HOP-92 NSCLC. The GI50 is 24.1 µM with HS 578T breast, 21.8 µM with MDA-MB-231 breast, 7.92 µM with K-562 leukemia and 0.257 µM with SR leukemia. Moreover, the TGI in the test with U251 CNS was greater than 60 µM; in the test with RPMI-8226 leukemia it was greater than 100 µM; with MOLT-4 leukemia it was greater than 100 µM; with M14 melanoma, greater than 100 µM; in the test with MALME-3M melanoma it was greater than 100 µM; in the test with HOP-92 NSCLC, 35.7 µM. For the same compound, the TGI with HS 578T breast is greater than 91.5 µM; in the test with MDA-MB-231 breast it was greater than 100 µM; in the test on K-562 leukemia, greater than 100 µM; in the test with SR leukemia, 4.04 µM.

As for `C/C(=C\C1=C(Cl)C(=O)c2ccccc2C1=O)C(=O)O`, the GI50 with U251 CNS was 15.8 µM; in the test on RPMI-8226 leukemia it was 20.2 µM; in the test on MOLT-4 leukemia, 28.2 µM; in the test on M14 melanoma, 17.7 µM; with MALME-3M melanoma, 24 µM; in the test on HOP-92 NSCLC it was 18.6 µM. Also, the GI50 with HS 578T breast is 30.3 µM; with MDA-MB-231 breast it was 18.6 µM; in the test with K-562 leukemia it was 23.1 µM; in the test with SR leukemia it was 24.2 µM. Also, the TGI with U251 CNS is 29.4 µM; in the test on RPMI-8226 leukemia, 46.5 µM; in the test with MOLT-4 leukemia, greater than 100 µM; in the test with M14 melanoma, 31.7 µM; in the test on MALME-3M melanoma it was 40.2 µM; in the test with HOP-92 NSCLC it was 33 µM. The TGI was 69.3 µM in the test with HS 578T breast, 33.8 µM in the test with MDA-MB-231 breast, 54.9 µM in the test on K-562 leukemia and greater than 100 µM in the test on SR leukemia.

For `O=P(NC12CC3CC(CC(C3)C1)C2)(N1CC1)N1CC1`, the TGI with U251 CNS is greater than 100 µM; with RPMI-8226 leukemia, greater than 100 µM; in the test on MOLT-4 leukemia, greater than 43.2 µM; in the test on M14 melanoma it was greater than 100 µM; with MALME-3M melanoma, greater than 100 µM; with HOP-92 NSCLC it was greater than 100 µM. The TGI is greater than 100 µM in the test on HS 578T breast, greater than 100 µM in the test on MDA-MB-231 breast, greater than 100 µM in the test with K-562 leukemia and greater than 91.4 µM in the test on SR leukemia.

In the case of `CC/C=C\C/C=C\C[C@H](O)C/C=C1/C(=O)C=C[C@@H]1C/C=C\CCCC(=O)O`, the GI50 with U251 CNS was 3.54 µM; with RPMI-8226 leukemia, 2.63 µM; with MOLT-4 leukemia it was 2.83 µM; with M14 melanoma it was 2.82 µM; with MALME-3M melanoma, 3.46 µM; in the test on HOP-92 NSCLC, 7.26 µM. Further, the GI50 is 28.4 µM in the test with HS 578T breast, 7.94 µM in the test on MDA-MB-231 breast, 3.17 µM in the test with K-562 leukemia and 2.46 µM in the test with SR leukemia. Besides, the TGI in the test with U251 CNS was determined as 12.2 µM; with RPMI-8226 leukemia, 12.1 µM; in the test with MOLT-4 leukemia, 11.8 µM; in the test on M14 melanoma it was 12 µM; in the test on MALME-3M melanoma, 15.6 µM; with HOP-92 NSCLC, 20.4 µM. Further, the TGI is greater than 100 µM with HS 578T breast, 44.4 µM in the test on MDA-MB-231 breast, greater than 100 µM with K-562 leukemia and 16.7 µM in the test on SR leukemia.

`CN(C)c1ccc(/C=C(\C#N)c2nc3ccccc3n2C)cc1`: the GI50 in the test with U251 CNS was 3.72 µM; with RPMI-8226 leukemia, 2.85 µM; in the test on MOLT-4 leukemia it was 7.03 µM; with M14 melanoma, 2.42 µM; with MALME-3M melanoma, 6.17 µM; in the test with HOP-92 NSCLC, 5.68 µM. In addition, the GI50 is 2.84 µM with HS 578T breast, 5.41 µM in the test on MDA-MB-231 breast, 0.249 µM in the test on K-562 leukemia and 0.279 µM in the test on SR leukemia. For the same compound, the TGI in the test on U251 CNS was greater than 100 µM; in the test on RPMI-8226 leukemia it was 14.7 µM; in the test with MOLT-4 leukemia it was greater than 38 µM; in the test with M14 melanoma, greater than 64.9 µM; in the test with MALME-3M melanoma it was 60.6 µM; with HOP-92 NSCLC, 28.9 µM. Moreover, the TGI with HS 578T breast is greater than 26.5 µM; in the test on MDA-MB-231 breast, greater than 100 µM; with K-562 leukemia, 10.8 µM; in the test with SR leukemia, greater than 100 µM.
